Experiment: xn = mol fraction of the nth substance listed
Details: 101 kPa, Liquid; for mass density: Vibrating tube method

NCCO.O=CO [2-hydroxyethylammonium formate] + CO
Details | mass density, 288.15 K [kg/m3] | mass density, 290.65 K [kg/m3] | mass density, 293.15 K [kg/m3] | mass density, 295.65 K [kg/m3] | speed of sound, 288.15 K [m/s] | speed of sound, 290.65 K [m/s] | speed of sound, 293.15 K [m/s] | speed of sound, 295.65 K [m/s]
x2 = 0 | 1183.57 | 1181.81 | 1180.04 | 1178.27 | 1733.9 | 1727.4 | 1721.3 | 1715.1
x2 = 0.055 | 1176.05 | 1174.4 | 1172.74 | 1171.09 | 1744.5 | 1739.2 | 1734 | 1728.8
x2 = 0.098 | 1169.59 | 1167.93 | 1166.26 | 1164.6 | 1733.2 | 1727.9 | 1722.6 | 1717.4
x2 = 0.193 | 1153.03 | 1151.34 | 1149.65 | 1147.97 | 1703.2 | 1697.7 | 1692.4 | 1687
x2 = 0.296 | 1132.54 | 1130.83 | 1129.11 | 1127.4 | 1666.2 | 1660.7 | 1655.3 | 1649.9
x2 = 0.399 | 1108.24 | 1106.5 | 1104.75 | 1103 | 1623.5 | 1617.8 | 1612.1 | 1606.5
x2 = 0.5 | 1079.69 | 1077.9 | 1076.11 | 1074.32 | 1573.6 | 1567.7 | 1561.8 | –
x2 = 0.598 | 1046.63 | 1044.79 | 1042.95 | 1041.11 | 1516.4 | 1510.3 | 1504.3 | –
x2 = 0.701 | 1005.33 | 1003.42 | 1001.51 | 999.603 | 1448.4 | 1441.8 | 1435.3 | –
x2 = 0.799 | 953.96 | 951.962 | 949.965 | 947.967 | 1365.8 | 1358.8 | 1351.9 | –
x2 = 0.9 | 887.02 | 884.894 | 882.765 | 880.636 | 1265.2 | 1257.6 | 1250.2 | –
x2 = 0.951 | 844.491 | 842.26 | 840.027 | 837.792 | 1203.6 | 1195.6 | 1187.8 | –
